Laboratory results taken from article PMC5854716, “Synthesis, molecular docking, ctDNA interaction, DFT calculation and evaluation of antiproliferative and anti-Toxoplasma gondii activities of 2,4-diaminotriazine-thiazole derivatives” (Medicinal Chemistry Research, 2018).
Converted amounts (≈) assume the structure as drawn.

Key:
[1] = tested on: Toxoplasma gondii BK strain; experiment: T. gondii tachyzoite intracellular proliferation in VERO host cells ([3H]uracil incorporation); assay type: cell-based; conditions: VERO host cells; for activity at 0.9 µg/mL / activity at 1.8 µg/mL / activity at 3.9 µg/mL / activity at 7.8 µg/mL / activity at 15.6 µg/mL / activity at 31.2 µg/mL / activity at 62.5 µg/mL / activity at 125 µg/mL / IC50: Toxoplasma gondii; for IC50: read-out: IC50 (50% inhibition of T. gondii proliferation in vitro)
Method in brief: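 VERO monolayers (2 × 10^4 cells/well) infected with 2 × 10^5 T. gondii tachyzoites/well in medium containing compounds at 0.9–125.00 μg/ml, with sulfadiazine at 5.0–2500.0 μg/ml as control, for 48 h at 37 °C. Growth measured by [3H]uracil incorporation over a further 18–20 h by scintillation counting, with host-cell-only cpm subtracted.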

mouse L929 fibroblast = experiment: Cell viability assay (MTT), L929; assay type: cell-based; conditions: 24 h; for CC30 L929: concentration for 30% proliferation inhibition
Description: (§1) The epithelial cell line VERO (ATCC-Catalog No. CCL-81^TM), derived from the kidney of the African green monkey, Cercopithecus aethiops and fibroblast cell line L-929 (ATCC-Catalog No. CCL-1^TM), derived from Mus musculus (http://www.atcc.org) were grown in Iscoves’s Modified Dulbecco’s Medium (IMDM) supplemented with 10% (v/v) fetal bovine serum (FBS), plus 2 mM L-glutamine, 100 U/ml penicillin, 100.00 µg/ml streptomycin, 5 × 10^−5 M 2-mercaptoethanol and maintained at 37 °C in a 10% CO2 atmosphere. Subcultures were performed via enzymatic cell dissociation in 0.25% trypsin. After dissociation, the cells were placed in culture medium at 4 °C with 10% FBS to inhibit the action of trypsin. The isolated cells were centrifuged for 10 min at 1000×g at 4 °C, and the cells were grown in new bottles. This procedure was repeated when cells reached a confluence of ~90%. All commercial reactants and solvents were purchased from either Sigma-Aldrich Laborchemikalien GmbH (Dzitko et al. [2014]).
(§2) Suspensions of the compounds 4a–l were freshly prepared (5 mg/ml DMSO) before the cells were exposed, and diluted to appropriate concentrations; 0.9, 1.8, 3.9, 7.8, 15.6, 31.2, 62.5, and 125.00 μg/ml with the culture medium. Cells treated with 2.5% DMSO-solvent served as a control in each experiment.
(§3) The effects of tested compounds on the viability of mouse fibroblasts L929 and […] VERO cells were evaluated using the MTT assay. The MTT assay was used according to international standards: ISO 10993-5:2009 (Tests for in vitro cytotoxicity; http://www.iso.org/iso/catalogue_detail.htm? csnumber = 36406). L929 and VERO cells were plated into 96-well plates at a density of 1.0 × 10^4/100 μl/well in culture medium and allowed to attach for 24 h before treatment. Afterwards, culture medium in the plates was replaced by 100 μl compounds suspension at concentration of 0–125 μg/ml and the cells were exposed for 24 h. Then 1 mg/ml MTT (50 μl/well) was added to each well and incubated at 37 °C, 10 % CO2 for 2 h. Mitochondrial dehydrogenases of viable cells reduce the yellowish water-soluble MTT to water-insoluble formazan crystals, which were solubilized with dimethyl sulfoxide (DMSO). The cell culture medium was aspirated cautiously, after which 150 μl DMSO was added to each well and mixed thoroughly. Optical density (OD) was read on the ELISA reader (Multiskan EX, Labsystems; http://www.mtxlsi.com/multiskan_EX.htm) at 550 nm. The results were expressed as percentage viability compared with the treated 2.5% DMSO controls. All experiments were performed in triplicate.

VERO cells = experiment: Cell viability assay (MTT), VERO; assay type: cell-based, Cercopithecus aethiops; conditions: 24 h; for CC30 VERO: concentration for 30% proliferation inhibition
Description: as §1, §2, §3

C/C(=N\Nc1nc(-c2ccc3[nH]c(=O)oc3c2)cs1)c1ccc(Nc2nc(N)nc(N)n2)cc1 [Compound 4l, (E)-6-(2-(2-(1-(4-(4,6-diamino-1,3,5-triazin-2-yloamino)phenyl)ethylidene)hydrazinyl)thiazol-4-yl)-benzo[d]oxazol-2(3H)-on]
T. gondii intracellular proliferation ([1]; 0.9 µg/ml): 99.98% | T. gondii intracellular proliferation ([1]; 1.8 µg/ml): 101.25% | T. gondii intracellular proliferation ([1]; 3.9 µg/ml): 106.91% | T. gondii intracellular proliferation ([1]; 7.8 µg/ml): 79.89% | T. gondii intracellular proliferation ([1]; 15.6 µg/ml): 56.46% | T. gondii intracellular proliferation ([1]; 31.2 µg/ml): 45.15% | T. gondii intracellular proliferation ([1]; 62.5 µg/ml): 20.34% | IC50 (50% inhibition of T. gondii proliferation in vitro) ([1]; GraphPad Prism curves): 23.09 µg/mL | Viability L929 (mouse L929 fibroblast; 0.9 µg/ml): 103.88% | Viability L929 (mouse L929 fibroblast; 1.8 µg/ml): 109.00% | Viability L929 (mouse L929 fibroblast; 3.9 µg/ml): 103.03% | Viability L929 (mouse L929 fibroblast; 7.8 µg/ml): 101.74% | Viability L929 (mouse L929 fibroblast; 15.6 µg/ml): 105.02% | Viability L929 (mouse L929 fibroblast; 31.2 µg/ml): 105.52% | Viability L929 (mouse L929 fibroblast; 62.5 µg/ml): 108.10% | CC30 L929 (mouse L929 fibroblast): >62.5 µg/mL | Viability VERO (VERO cells; 0.9 µg/ml): 97.13% | Viability VERO (VERO cells; 1.8 µg/ml): 87.85% | Viability VERO (VERO cells; 3.9 µg/ml): 95.16% | Viability VERO (VERO cells; 7.8 µg/ml): 91.03% | Viability VERO (VERO cells; 15.6 µg/ml): 96.08% | Viability VERO (VERO cells; 31.2 µg/ml): 95.40% | Viability VERO (VERO cells; 62.5 µg/ml): 97.33% | CC30 VERO (VERO cells): >62.5 µg/mL

C/C(=N\Nc1nc(-c2ccccc2)cs1)c1ccc(Nc2nc(N)nc(N)n2)cc1 [Compound 4k, (E)-N^2-(4-(1-(2-(4-phenyl-1,3-thiazol-2-yl)hydrazinylidene)ethyl)phenyl)-1,3,5-triazine-2,4,6-triamine]
activity at 0.9 µg/mL ([1]; 0.9 µg/ml): 100% | activity at 1.8 µg/mL ([1]; 1.8 µg/ml): 100% | activity at 3.9 µg/mL ([1]; 3.9 µg/ml): 96.3% | activity at 7.8 µg/mL ([1]; 7.8 µg/ml): 85.9% | activity at 15.6 µg/mL ([1]; 15.6 µg/ml): 63.6% | activity at 31.2 µg/mL ([1]; 31.2 µg/ml): 49.4% | activity at 62.5 µg/mL ([1]; 62.5 µg/ml): 36.1% | activity at 125 µg/mL [1]: 17.7% | IC50 ([1]; GraphPad Prism curves): 31.5 µg/mL (≈ 75.5 µM) | CC30 L929 (mouse L929 fibroblast): >125.0 µg/mL | CC30 VERO (VERO cells): >125.0 µg/mL

C/C(=N\Nc1nc(-c2ccc(Cl)cc2)cs1)c1ccc(Nc2nc(N)nc(N)n2)cc1 [Compound 4b, (E)-N^2-(4-(1-(2-(4-(4-chlorophenyl)-1,3-thiazol-2-yl)hydrazinylidene)ethyl)phenyl)-1,3,5-triazine-2,4,6-triamine]
activity at 0.9 µg/mL ([1]; 0.9 µg/ml): 100% | activity at 1.8 µg/mL ([1]; 1.8 µg/ml): 106% | activity at 3.9 µg/mL ([1]; 3.9 µg/ml): 101% | activity at 7.8 µg/mL ([1]; 7.8 µg/ml): 98.2% | activity at 15.6 µg/mL ([1]; 15.6 µg/ml): 74.6% | activity at 31.2 µg/mL ([1]; 31.2 µg/ml): 52.2% | activity at 62.5 µg/mL ([1]; 62.5 µg/ml): 26.1% | activity at 125 µg/mL [1]: 14.7% | IC50 ([1]; GraphPad Prism curves): 33 µg/mL (≈ 73.1 µM) | CC30 L929 (mouse L929 fibroblast): >125.0 µg/mL | CC30 VERO (VERO cells): >125.0 µg/mL

C/C(=N\Nc1nc(-c2ccc([N+](=O)[O-])cc2)cs1)c1ccc(Nc2nc(N)nc(N)n2)cc1 [Compound 4h, (E)-N^2-(4-(1-(2-(4-(4-nitrophenyl)-1,3-thiazol-2-yl)hydrazinylidene)ethyl)phenyl)-1,3,5-triazine-2,4,6-triamine]
activity at 0.9 µg/mL ([1]; 0.9 µg/ml): 103% | activity at 1.8 µg/mL ([1]; 1.8 µg/ml): 105% | activity at 3.9 µg/mL ([1]; 3.9 µg/ml): 113% | activity at 7.8 µg/mL ([1]; 7.8 µg/ml): 101% | activity at 15.6 µg/mL ([1]; 15.6 µg/ml): 85.7% | activity at 31.2 µg/mL ([1]; 31.2 µg/ml): 77.5% | activity at 62.5 µg/mL ([1]; 62.5 µg/ml): 74% | activity at 125 µg/mL [1]: 39.4% | IC50 ([1]; GraphPad Prism curves): 119 µg/mL (≈ 257 µM) | CC30 L929 (mouse L929 fibroblast): >125.0 µg/mL | CC30 VERO (VERO cells): >125.0 µg/mL

C/C(=N\Nc1nc(-c2ccc(F)cc2)cs1)c1ccc(Nc2nc(N)nc(N)n2)cc1 [Compound 4a, (E)-N^2-(4-(1-(2-(4-(4-fluorophenyl)-1,3-thiazol-2-yl)hydrazinylidene)ethyl)phenyl)-1,3,5-triazine-2,4,6-triamine]
activity at 0.9 µg/mL ([1]; 0.9 µg/ml): 102% | activity at 1.8 µg/mL ([1]; 1.8 µg/ml): 101% | activity at 3.9 µg/mL ([1]; 3.9 µg/ml): 101% | activity at 7.8 µg/mL ([1]; 7.8 µg/ml): 108% | activity at 15.6 µg/mL ([1]; 15.6 µg/ml): 99.1% | activity at 31.2 µg/mL ([1]; 31.2 µg/ml): 77.6% | activity at 62.5 µg/mL ([1]; 62.5 µg/ml): 34.9% | activity at 125 µg/mL [1]: 17.6% | IC50 ([1]; GraphPad Prism curves): 51.6 µg/mL (≈ 119 µM) | CC30 L929 (mouse L929 fibroblast): >125.0 µg/mL | CC30 VERO (VERO cells): >125.0 µg/mL

C/C(=N\Nc1nc(-c2ccc(C)cc2)cs1)c1ccc(Nc2nc(N)nc(N)n2)cc1 [Compound 4c, (E)-N^2-(4-(1-(2-(4-(4-tolyl)-1,3-thiazol-2-yl)hydrazinylidene)ethyl)phenyl)-1,3,5-triazine-2,4,6-triamine]
activity at 0.9 µg/mL ([1]; 0.9 µg/ml): 102% | activity at 1.8 µg/mL ([1]; 1.8 µg/ml): 102% | activity at 3.9 µg/mL ([1]; 3.9 µg/ml): 110% | activity at 7.8 µg/mL ([1]; 7.8 µg/ml): 100% | activity at 15.6 µg/mL ([1]; 15.6 µg/ml): 86.2% | activity at 31.2 µg/mL ([1]; 31.2 µg/ml): 58.6% | activity at 62.5 µg/mL ([1]; 62.5 µg/ml): 40.1% | activity at 125 µg/mL [1]: 30.9% | IC50 ([1]; GraphPad Prism curves): 51.4 µg/mL (≈ 119 µM) | CC30 L929 (mouse L929 fibroblast): >125.0 µg/mL | CC30 VERO (VERO cells): >125.0 µg/mL
